These results are taken from patent US9908896B2, “P38 and JNK MAPK inhibitors for the treatment and prophylaxis of degenerative diseases of the nervous system” (ALLINKY BIOPHARMA, priority 2014, dated 2018).

Values joined by “and” are separate entries in the source; they are usually repeats but may differ in a detail not shown here. Equal values may be shown once. Read-outs that look alike come from different tables or passages of the source.

Data set [1] deals with recombinant activated JNK. In words: in vitro kinase assay JNK (ADP-Glo). In kind it is biochemical. As to conditions: 100 μM ATP. As to the method:
Purified recombinant activated JNK (10 nM) (ProQinase) was preincubated 10 minutes at 30° C. with the compound of interest at concentrations between 1 and 100 μM in duplicate in a final volume of 30 μl of kinase buffer (Hepes 60 mM pH 7.5, MgCl2 3 mM, MnCl2 3 mM, sodium orthovanadate 3 μM, DTT 1.2 mM). After preincubation, peptide substrate (SignalChem #P03-58) and ATP were added to a final concentration of 10 μM and 100 μM respectively, and then incubated 40 minutes at 30° C. for the kinase reaction. Phosphorylation was analyzed with ADP-Glo™ (Promega #V9101) and emitted luminescence was measured with BMG Fluostar microplate reader.
A general note: In ADP-Glo the light output rises with the ADP produced.

The nature of data set [2]: Single dose i.p. and i.v. blood brain barrier permeability study, plasma and brain concentration (LC-MS/MS). In kind it is in vivo, male Sprague Dawley rat. Conditions: for concentration at 2 h: male, Sprague Dawley, 10 mg/kg. The method, then: The objective of these tests was to determine the plasma and brain concentration of the compound 1 in male Sprague Dawley rat after single intraperioneal (i.p.) and intravenous (i.v.) administration.
The compound 1 was administered intravenously (i.v.) through tail vein and intraperitoneally (i.p.) in abdominal cavity. After dosing of each animal, the time was documented.
Formulation vehicle: 20 Vol.-% Cremophore, 10 Vol.-% ethanol, 70 Vol.-% normal saline
Bioanalysis was performed using fit-for-purpose LC-MS/MS method for the quantification of test compounds in plasma samples and brain homogenate. The method was validated for calibration curve consisted of nine non-zero calibration standards along with a double blank and zero standard samples. Study samples were analysed along with two sets of quality control samples (6 QC samples; low, medium and high QC sample).
Sample Process: Blood samples were placed on ice prior to centrifugation and centrifuged within 15 min at 5000 rpm for 10 min at 4° C.
Immediately after blood withdrawal, in situ brain perfusion was performed using chilled saline. The chest of the rat was exposed, the abdominal aorta was clamped and both jugular veins were cut. Intra-cardial perfusion was performed through an insertion in the left ventricle. Perfusion of each rat was followed by exanguination for brain collection. The skin over the cranium was incised and deflected. The head was flexed and a cut was made through the muscles and the spinal cord at the junction of the foreman magnum and atlas vertebra. A circumferential incision was carefully made in the cranium using a bone cutter. The roof of the cranium was lifted off to expose the meninges and brain. The meninges were removed carefully. Then holding the head with the nose pointing upward, the anterior part of the brain was lifted to separate the brain. Separated brain was immediately weighed and frozen at −80±10° C. until homogenization.
Brain samples were thawed on ice. An appropriate volume of ice cold homogenizing media (Normal Saline) was added. Brain samples were homogenized on ice with the Polytron® homogenizer and volume was adjusted with homogenizing media to achieve 1 g of brain per 5 ml of homogenate. After homogenization, the brain homogenate were immediately frozen at −80° C. until analysis.

In the case of `CCCOc1ccc(Nc2nc3nonc3nc2N2CCC(Oc3ccc(Cl)cc3)CC2)cc1` [Comp 1], the “% of inhibition at 1 μM, JNK” value in data set [1] (1 μM compound) is 49%. Moreover, in data set [1] (10 μM compound), the “% of inhibition at 10 μM, JNK” value is 98%. Also, the “Concentration in rat brain homogenate i.p. at 2 h, individual rats” value in data set [2] (10 mg/kg i.p., rats R1, R2, R3) was 31.30 ng/g and 44.55 ng/g. Further, the “Concentration in rat plasma i.p. at 2 h, individual rats” value in data set [2] (10 mg/kg i.p., rats R1, R2, R3) is 0.06364 µg/mL and 0.08775 µg/mL. Besides, the “Concentration in rat brain homogenate i.v. at 2 h, individual rats” value in data set [2] (10 mg/kg i.v., rats R1, R2, R3) was 394.80 ng/g and 439.45 ng/g. In data set [2] (10 mg/kg i.v., rats R1, R2, R3), the “Concentration in rat plasma i.v. at 2 h, individual rats” value is 0.29338 µg/mL and 0.15626 µg/mL. The concentration at 2 h is 41.6 ng/g in data set [2] (rat, brain homogenate, intraperitoneal, 10 mg/kg i.p., mean of 3 rats, read-out: Concentration in rat brain homogenate i.p. at 2 h, Mean); 49.1 ng/g in data set [2] (rat, brain homogenate, intraperitoneal, 10 mg/kg i.p., rats R1, R2, R3, read-out: Concentration in rat brain homogenate i.p. at 2 h, individual rats); 386 ng/g in data set [2] (rat, brain homogenate, intravenous, 10 mg/kg i.v., mean of 3 rats, read-out: Concentration in rat brain homogenate i.v. at 2 h, Mean); 323 ng/g in data set [2] (rat, brain homogenate, intravenous, 10 mg/kg i.v., rats R1, R2, R3, read-out: Concentration in rat brain homogenate i.v. at 2 h, individual rats); 0.0915 µg/mL in data set [2] (rat, plasma, intraperitoneal, 10 mg/kg i.p., mean of 3 rats, read-out: Concentration in rat plasma i.p. at 2 h, Mean); 0.123 µg/mL in data set [2] (rat, plasma, intraperitoneal, 10 mg/kg i.p., rats R1, R2, R3, read-out: Concentration in rat plasma i.p. at 2 h, individual rats). Moreover, the concentration at 2 h in data set [2] (rat, plasma, intravenous, 10 mg/kg i.v., mean of 3 rats, read-out: Concentration in rat plasma i.v. at 2 h, Mean) is 0.204 µg/mL; in data set [2] (rat, plasma, intravenous, 10 mg/kg i.v., rats R1, R2, R3, read-out: Concentration in rat plasma i.v. at 2 h, individual rats) it was 0.163 µg/mL. Further, in data set [2] (rat, 10 mg/kg i.v. or i.p., 2 h), the “blood-brain permeability (in words)” value is on record as “excellent blood-brain permeability”.
